PMC12645437, “Orthogonal IMiD-Degron Pairs Induce Selective Protein Degradation in Cells” (ACS Chemical Biology, 2025)
Several values for one entry are separate records, joined by “and”; a condition that tells them apart may be missing. Equal entries are not always repeated.

Key:
[1] = target: T1, endogenous IKZF3 in Jurkat cells (Homo sapiens, UniProt Q96SW2+Q9UKT9); assay: Western blot for endogenous IKZF3; type: cell-based; details: 18 h; for endogenous IKZF3 levels (Western blot): transduced Jurkat cells; for degradation of endogenous IKZF3 (Western blot): untransduced Jurkat cells
T1 construct: endogenous in cells; host or cells: Jurkat (transduced with ZF-EGFP constructs, or untransduced)
T1 sequence (Q9UKT9 whole entry): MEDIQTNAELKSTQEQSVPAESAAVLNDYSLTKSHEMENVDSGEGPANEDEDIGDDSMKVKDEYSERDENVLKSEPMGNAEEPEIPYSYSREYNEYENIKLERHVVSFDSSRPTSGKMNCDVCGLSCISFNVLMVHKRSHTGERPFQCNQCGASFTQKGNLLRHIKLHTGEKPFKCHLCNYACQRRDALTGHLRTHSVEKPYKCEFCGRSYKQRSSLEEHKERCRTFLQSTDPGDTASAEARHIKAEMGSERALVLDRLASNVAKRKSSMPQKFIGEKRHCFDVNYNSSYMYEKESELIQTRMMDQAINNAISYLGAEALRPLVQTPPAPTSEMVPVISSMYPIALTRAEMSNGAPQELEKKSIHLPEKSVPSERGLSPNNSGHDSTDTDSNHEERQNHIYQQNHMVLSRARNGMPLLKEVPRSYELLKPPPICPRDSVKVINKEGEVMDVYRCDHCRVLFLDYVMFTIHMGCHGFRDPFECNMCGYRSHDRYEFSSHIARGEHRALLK
T1 sequence (Q96SW2 whole entry): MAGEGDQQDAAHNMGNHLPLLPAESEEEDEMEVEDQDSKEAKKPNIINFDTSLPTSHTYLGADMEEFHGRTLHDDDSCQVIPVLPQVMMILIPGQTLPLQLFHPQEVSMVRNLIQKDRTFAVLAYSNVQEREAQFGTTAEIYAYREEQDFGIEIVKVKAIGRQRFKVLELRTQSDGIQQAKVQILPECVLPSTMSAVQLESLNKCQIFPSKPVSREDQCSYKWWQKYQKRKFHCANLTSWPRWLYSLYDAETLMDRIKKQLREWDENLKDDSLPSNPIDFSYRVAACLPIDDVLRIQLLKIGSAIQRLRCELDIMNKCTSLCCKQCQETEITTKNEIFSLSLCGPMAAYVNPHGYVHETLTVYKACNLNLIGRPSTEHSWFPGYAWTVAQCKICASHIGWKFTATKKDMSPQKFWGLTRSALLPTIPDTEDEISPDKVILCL
T1 sequence (Q16531 whole entry partner): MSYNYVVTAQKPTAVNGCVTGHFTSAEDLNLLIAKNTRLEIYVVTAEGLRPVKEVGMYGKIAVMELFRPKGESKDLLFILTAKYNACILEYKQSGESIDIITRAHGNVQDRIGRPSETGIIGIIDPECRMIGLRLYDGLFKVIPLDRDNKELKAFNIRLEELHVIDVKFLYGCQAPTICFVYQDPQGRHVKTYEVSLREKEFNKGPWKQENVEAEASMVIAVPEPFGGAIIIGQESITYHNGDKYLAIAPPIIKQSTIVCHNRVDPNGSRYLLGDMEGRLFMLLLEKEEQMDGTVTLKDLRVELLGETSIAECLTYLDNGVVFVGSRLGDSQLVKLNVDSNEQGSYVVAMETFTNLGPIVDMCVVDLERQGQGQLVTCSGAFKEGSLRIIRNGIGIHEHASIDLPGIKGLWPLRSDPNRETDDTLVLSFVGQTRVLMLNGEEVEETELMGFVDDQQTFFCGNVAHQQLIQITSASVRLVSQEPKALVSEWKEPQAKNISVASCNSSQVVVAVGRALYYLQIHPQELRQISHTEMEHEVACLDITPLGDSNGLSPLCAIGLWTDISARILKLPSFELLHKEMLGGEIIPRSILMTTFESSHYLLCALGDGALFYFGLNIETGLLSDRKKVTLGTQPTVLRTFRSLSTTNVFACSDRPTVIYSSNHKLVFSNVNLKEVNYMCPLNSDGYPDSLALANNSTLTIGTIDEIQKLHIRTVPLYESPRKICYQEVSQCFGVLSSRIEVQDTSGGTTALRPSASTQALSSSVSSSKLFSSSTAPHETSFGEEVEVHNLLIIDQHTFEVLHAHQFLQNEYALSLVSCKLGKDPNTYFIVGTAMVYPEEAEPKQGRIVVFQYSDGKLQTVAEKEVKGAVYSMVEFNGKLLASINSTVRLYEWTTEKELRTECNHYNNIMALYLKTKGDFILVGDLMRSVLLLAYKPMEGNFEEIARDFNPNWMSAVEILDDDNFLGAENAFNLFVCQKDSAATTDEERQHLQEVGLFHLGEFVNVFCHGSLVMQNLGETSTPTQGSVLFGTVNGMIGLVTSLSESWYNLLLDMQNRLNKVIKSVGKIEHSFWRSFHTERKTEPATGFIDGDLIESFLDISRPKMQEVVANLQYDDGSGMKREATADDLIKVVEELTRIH

[2] = target: T2, Q147A mutant degron (ANQS) fused to EGFP (Homo sapiens, UniProt Q96SW2+Q9UKT9, Q147A); assay: Ratiometric EGFP:mCherry flow cytometry degradation assay, 18 h; type: cell-based; details: for Dmax: Fig 2B, read-out: DMax Q147A/%
T2 construct: pLVX-Sprout-IKZF3 130-189aa Q147A (ANQS); expressed in transfected cells
T2 sequence (Q9UKT9 130-189 Q147A): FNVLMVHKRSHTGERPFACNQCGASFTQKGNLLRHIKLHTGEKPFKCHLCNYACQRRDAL
T2 sequence (Q96SW2 whole entry, the tested form may be a part): as the sequence (Q96SW2 whole entry) above
T2 sequence (Q16531 whole entry partner, the tested form may be a part): as the sequence (Q16531 whole entry partner) above

[3] = target: T3, WT IKZF3-derived degron fused to EGFP (Homo sapiens, UniProt Q96SW2+Q9UKT9); assay: as above; type: cell-based; details: Jurkat; for Degradation pDC50 WT: Fig 2B; for DC50 / pDC50: WT degron, Fig 5A
T3 construct: Plasmid: pLVX-Sprout-IKZF3 130-189aa (WT); expressed in transfected cells
T3 sequence (Q9UKT9 130-189): as the sequence (Q9UKT9 130-189 Q147A) above, with A18Q counted along it
T3 sequence (Q96SW2 whole entry, the tested form may be a part): as the sequence (Q96SW2 whole entry) above
T3 sequence (Q16531 whole entry partner, the tested form may be a part): as the sequence (Q16531 whole entry partner) above

[4] = target: T4, endogenous IKZF1 in Jurkat cells (Homo sapiens, UniProt Q13422+Q96SW2); assay: Endogenous IKZF1 immunostaining, fluorescent antibody flow cytometry assay; type: cell-based; details: 18 h
T4 construct: endogenous in cells; host or cells: Jurkat (untransduced for immunostaining; WEIS-EGFP-transduced for the blot)
T4 sequence (Q13422 whole entry): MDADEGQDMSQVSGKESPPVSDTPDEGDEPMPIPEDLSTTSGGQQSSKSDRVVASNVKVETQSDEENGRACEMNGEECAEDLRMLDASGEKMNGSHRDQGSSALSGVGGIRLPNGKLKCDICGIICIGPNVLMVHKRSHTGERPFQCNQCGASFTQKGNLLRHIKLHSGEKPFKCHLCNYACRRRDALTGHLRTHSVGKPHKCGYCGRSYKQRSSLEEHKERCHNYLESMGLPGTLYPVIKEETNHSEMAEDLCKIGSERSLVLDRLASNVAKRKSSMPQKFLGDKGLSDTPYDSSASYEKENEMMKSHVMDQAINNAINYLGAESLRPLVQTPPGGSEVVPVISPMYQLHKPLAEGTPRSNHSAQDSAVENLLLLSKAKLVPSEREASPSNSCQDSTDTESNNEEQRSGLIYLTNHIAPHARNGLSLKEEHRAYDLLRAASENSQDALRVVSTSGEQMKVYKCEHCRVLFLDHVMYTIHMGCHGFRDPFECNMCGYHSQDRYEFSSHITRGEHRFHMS
T4 sequence (Q96SW2 whole entry): as the sequence (Q96SW2 whole entry) above
T4 sequence (Q16531 whole entry partner): as the sequence (Q16531 whole entry partner) above
Description: As we sought to screen a large number of mutant ZF degrons with different mutation combinations, we pursued a library screen approach similar to that previously employed by Sievers et al. and Jan et al. , Only the most promising compounds from the original set of 36 were used for the library screen. To help narrow the candidates, a subset of compounds was tested for endogenous IKZF1 degradation in Jurkat cells using a fluorescent antibody flow cytometry assay (Figure S5). […] Thalidomide and lenalidomide were also included as controls.
Endogenous IKZF1 Immunostaining
37 °C and 5% CO2. Following incubation, cells were stained with LIVE/DEAD™ Fixable Aqua Dead Cell Stain (Thermo) diluted 1000X in PBS for 30 min at room temperature and then incubated with Human TruStain FcX block (Biolegend) diluted 40X in PBS + 1% FBS (Gibco) for 10 min at room temperature. Intranuclear staining of IKZF1 was carried out using the Transcription Factor Buffer Set (BD Bioscience) according to the manufacturer's protocol and staining with IKZF1 AF488 antibody (clone R32-1149, BD Bioscience) diluted 40X for 30 minutes at room temperature. Cells were acquired on a Cytoflex S (Beckman Coulter) and data analysed using FlowJo 10.8.1 9 (BD).

[5] = test system: library of 8380 IKZF3 degrons fused to EGFP in Jurkat cells; assay: Pooled mutant ZF degron library screen (FACS EGFPlow vs EGFP+, NGS), 18 h; type: cell-based, human;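 for logFC: Log2 fold change of EGFPlow over EGFP+ representation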
Jurkat cells = assay: TMTpro quantitative proteomics, 16 h; details: Jurkat, 10 μM, 16 h; 9644 quantified proteins
Description: Quantitative proteomics screens were carried out in untransduced Jurkat cells, embryonic stem cells (ESCs), and the multiple myeloma cell line, MM.1S. We used Jurkat cells, as our work up to this point had employed this cell line, and we selected ESCs and MM.1S cells as they express known CRBN neosubstrates, including IKZF1, IKZF3, RAB28, RNF166, SALL4, ZFP91, and ZNF827.
Proteomics - cell lysis and protein digestion
The viability of Jurkat cells was tested after 16-h treatment with corresponding chemicals
viable cells in each condition. Next, ~10^7 cells per condition were collected by centrifugation (1000 rpm), washed twice with ice-cold PBS, and lysed in RIPA buffer [50 mM HEPES pH 7.4, 150 mM NaCl, 1% sodium deoxycholate, 1% NP-40, 0.1% SDS, 10 mM sodium pyrophosphate, 10 mM β-glycerophosphate, 2.5 mM MgCl2, 200 µM TCEP, phosphatase and protease inhibitor cocktail (in-house)], to produce whole cell extracts. Whole-cell extracts were sonicated, and protein concentrations were determined using the Bradford assay. Protein extracts (100 µg) were subjected to disulfide bond reduction with 5 mM TCEP (10 min) and alkylation with 25 mM chloroacetamide (20 min). Methanol–chloroform precipitation was performed prior to protease digestion. In brief, four parts of neat methanol were added to each sample and vortexed, one part chloroform was added to the sample and vortexed, and finally, three parts water was added to the sample and vortexed. The sample was centrifuged at 8000 rpm for 5 min at room temperature and subsequently washed twice with 100% methanol. Samples were resuspended in 100 mM EPPS pH8.5 containing
0.1% RapiGest and digested at 37 °C for 6 h with trypsin at a 100:1 protein-to-protease ratio.
Samples were then subjected to TMTpro
labeling. The preparation of MM1S cell extracts was conducted using the same procedure as for
Jurkat cells. ESC cells were plated onto 6 cm dishes 24 hours prior to the chemical treatment.
Following the chemical treatment, the cells on the dish were washed with DPBS four times, after
which RIPA buffer was added directly to the dish, and the lysate was collected using a scraper.
The whole cell lysates were then processed similarly to the Jurkat cell lysates.
Proteomics - Tandem mass tag labeling
Proline-based reporter isobaric Tandem Mass Tag (TMTpro) labeling of dried peptide samples
resuspended in 100 mM EPPS pH 8.5, was carried out as follows. TMTpro reagent was added to
samples (100 µg peptide), along with acetonitrile, to achieve a final acetonitrile concentration of
approximately 30% (v/v). Following incubation at room temperature for 1 h, the labeling efficiency
of a small aliquot was tested. The reaction was then quenched with hydroxylamine to a final
concentration of 0.5% (v/v) for 15 min. The TMTpro-labeled samples were pooled together at a
1:1 ratio. The sample was vacuum centrifuged to near dryness and subjected to C18 solid-phase
The dried TMTpro-labeled sample was resuspended in 100 μL of 10 mM NH4HCO3 pH 8.0 and
fractionated using basic pH reverse phase HPLC 40. Briefly, samples were offline fractionated over
a 90 min run, into 96 fractions by high pH reverse-phase HPLC (Agilent LC1260) through an aeris
peptide xb-c18 column (Phenomenex; 250 mm × 3.6 mm) for total proteome with mobile phase A
containing 5% acetonitrile and 10 mM NH4HCO3, and mobile phase B containing 90% acetonitrile

[6] = target: T5, TRIM28 with N-terminal WEIS degron tag and HiBit tag (Homo sapiens, UniProt Q96SW2+Q9UKT9, N149E/Q147W/Q150I); assay: HiBiT luminescence degradation assay; type: cell-based; details: Jurkat, 24 h
T5 construct: pLVX-Sprout-IKZF3 130-189aa Q147W N149E Q150I (WEIS); TRIM28 (fusion partner / protein of interest, gene TRIM28, human entry Q13263 by my knowledge); expressed in transfected cells; host or cells: Jurkat, lentiviral transduction; endogenous TRIM28 knocked out by CRISPR
T5 sequence (Q9UKT9 130-189 Q147W/N149E/Q150I): as the sequence (Q9UKT9 130-189 Q147A) above, with A18W, N20E, Q21I counted along it
T5 sequence (Q96SW2 whole entry, the tested form may be a part): as the sequence (Q96SW2 whole entry) above

[7] = WT degron, residues 146/147/149/150/152/153/154/155/167: FQNQGASFL
[8] = degron residues 146/147/149/150/152/153/154/155/167: FADIGAAFL
[9] = degron residues 146/147/149/150/152/153/154/155/167: FADIGACFL
[10] = degron residues 146/147/149/150/152/153/154/155/167: FADIGADFL
[11] = degron residues 146/147/149/150/152/153/154/155/167: FADIGAEFL
[12] = degron residues 146/147/149/150/152/153/154/155/167: FWEIGACFL
[13] = degron residues 146/147/149/150/152/153/154/155/167: FWEIGAKFL (WEIK)

With CC(C)(C)c1ccc2c(c1)C(=O)N(C1CCC(=O)NC1=O)C2=O (stereo not drawn) [Compound 19] the “endogenous IKZF3 levels (Western blot)” value [1] was “remained unaffected”, the “degradation of endogenous IKZF3 (Western blot)” value [1] was “do not induce degradation of endogenous IKZF3” and the DC50 ([2]; ANQS, Jurkat, 18 h, Fig 5A) was 0.537 µM. The pDC50 ([2]; ANQS, Jurkat, 18 h, Fig 5A) was 6.27, the “Selectivity (WT/mutant)” value ([2]; DC50(WT)/DC50(ANQS), Fig 5A) was 1.4 and the Dmax ([2]; Jurkat, 18 h) was 87%. The “Degradation pDC50 WT” value [3] was 6.05, the DC50 [3] was 0.759 µM and the pDC50 [3] was 6.12. The “degradation of endogenous IKZF1” value [4] was “did not induce degradation of endogenous IKZF1”, the Log2FC [5, 7] was -1.8291 and -1.83 and the logFC [5, 8] was 3.42. The logFC [5, 9] was 2.8476, the logFC [5, 10] was 0.3339 and the logFC [5, 11] was 0.9661. The Log2FC ([5]; degron residues 146/147/149/150/152/153/154/155/167: FAEIGAAFL) was 3.8965, the Log2FC ([5]; degron residues 146/147/149/150/152/153/154/155/167: FAEIGARFL) was 3.8372 and the Log2FC ([5]; degron residues 146/147/149/150/152/153/154/155/167: FAEVGAKFL (AEVK)) was 3.9176 and 3.92 and 3.918. It also gave a Log2FC ([5]; degron residues 146/147/149/150/152/153/154/155/167: FAEVGARFL) of 3.9084, a Log2FC ([5]; degron residues 146/147/149/150/152/153/154/155/167: FAEVGASFL) of 3.8698 and a Log2FC ([5]; degron residues 146/147/149/150/152/153/154/155/167: FANQGASFL (ANQS)) of -0.98. The Log2FC ([5]; degron residues 146/147/149/150/152/153/154/155/167: FAPIGASFL (APIS)) was 3.73, the Log2FC ([5]; degron residues 146/147/149/150/152/153/154/155/167: FFDIGAPFL (FDIP)) was 3.9195 and 3.92 and 3.919 and the Log2FC ([5]; degron residues 146/147/149/150/152/153/154/155/167: FFEVGAPFL (FEVP)) was 3.9979 and 4.00 and 3.998. It also gave a Log2FC ([5]; degron residues 146/147/149/150/152/153/154/155/167: FFPIGAPFL) of 3.9164, a Log2FC ([5]; degron residues 146/147/149/150/152/153/154/155/167: FGEVGARFL) of 3.8587 and a Log2FC ([5]; degron residues 146/147/149/150/152/153/154/155/167: FGPIGACFL) of 3.9002. For the same compound, the Log2FC ([5]; degron residues 146/147/149/150/152/153/154/155/167: FGPVGACFL) was 3.8841, the Log2FC ([5]; degron residues 146/147/149/150/152/153/154/155/167: FGPVGAMFL) was 3.8585 and the Log2FC ([5]; degron residues 146/147/149/150/152/153/154/155/167: FHEIGAPFL (HEIP)) was 4.0013 and 4.00 and 4.001. The Log2FC [5, 12] was 3.8152, the Log2FC [5, 13] was 3.9155 and 3.96 and 3.955 and the Log2FC ([5]; degron residues 146/147/149/150/152/153/154/155/167: FYEIGAKFL) was 3.9035. It also gave a Log2FC ([5]; degron residues 146/147/149/150/152/153/154/155/167: FYEIGAPFL) of 3.8608, a Log2FC ([5]; degron residues 146/147/149/150/152/153/154/155/167: FYEVGAAFL) of 3.8726 and a Log2FC ([5]; degron residues 146/147/149/150/152/153/154/155/167: FYNIGAPFL) of 3.8168. It also gave a Log2FC ([5]; degron residues 146/147/149/150/152/153/154/155/167: FYPIGAPFL) of 3.8626.

CN1CCN(c2ccc3c(c2)C(=O)N(C2CCC(=O)NC2=O)C3=O)CC1 (stereo not drawn) [Compound 23] was tested, and the “proteins degraded (quantitative proteomics)” value (Jurkat cells) was “no major effect on any of the 9644 quantified proteins”, the “endogenous IKZF3 levels (Western blot)” value [1] was “remained unaffected” and the “degradation of endogenous IKZF3 (Western blot)” value [1] was “do not induce degradation of endogenous IKZF3”. The Dmax ([2]; Jurkat, 18 h) was 79%, the “Degradation pDC50 WT” value [3] was 5.96 and the DC50 [3] was 0.631 µM. The pDC50 [3] was 6.20, the “degradation of endogenous IKZF1” value [4] was “did not induce degradation of endogenous IKZF1” and the D max [6] was 66%. For the same compound, the DC50 [6] was 1.27 µM, the Log2FC [5, 7] was -1.4561 and -1.46 and the logFC [5, 8] was 2.104. For the same compound, the logFC [5, 9] was 0.9928, the logFC [5, 10] was -0.7621 and the logFC [5, 11] was -0.08962. For the same compound, the Log2FC ([5]; degron residues 146/147/149/150/152/153/154/155/167: FWDIGAAFL (WDIA)) was 4.2601 and 4.26, the Log2FC ([5]; degron residues 146/147/149/150/152/153/154/155/167: FWDIGANFL) was 4.2762 and 4.276 and the Log2FC ([5]; degron residues 146/147/149/150/152/153/154/155/167: FWDIGASFL) was 4.2199. It also gave a Log2FC ([5]; degron residues 146/147/149/150/152/153/154/155/167: FWDVGAAFL) of 4.1742, a Log2FC ([5]; degron residues 146/147/149/150/152/153/154/155/167: FWDVGAQFL) of 4.2369 and a Log2FC ([5]; degron residues 146/147/149/150/152/153/154/155/167: FWDVGASFL) of 4.2017. It also gave a Log2FC [5, 12] of 4.1830, a Log2FC ([5]; degron residues 146/147/149/150/152/153/154/155/167: FWEIGAHFL) of 4.1861 and a Log2FC [5, 13] of 4.1692. For the same compound, the Log2FC ([5]; degron residues 146/147/149/150/152/153/154/155/167: FWEIGASFL (WEIS)) was 4.4149 and 4.45 and 4.449, the Log2FC ([5]; degron residues 146/147/149/150/152/153/154/155/167: FWEQGASFL) was 4.1915 and the Log2FC ([5]; degron residues 146/147/149/150/152/153/154/155/167: FWEVGAQFL) was 4.1344. The Log2FC ([5]; degron residues 146/147/149/150/152/153/154/155/167: FWEVGASFL) was 4.2567 and 4.257, the Log2FC ([5]; degron residues 146/147/149/150/152/153/154/155/167: FWNIGAQFL (WNIQ)) was 4.2715 and 4.27 and 4.275 and the Log2FC ([5]; degron residues 146/147/149/150/152/153/154/155/167: FWNQGASFL (WNQS)) was 3.90. For the same compound, the Log2FC ([5]; degron residues 146/147/149/150/152/153/154/155/167: FWNVGASFL) was 4.1357, the Log2FC ([5]; degron residues 146/147/149/150/152/153/154/155/167: FWPVGAQFL) was 4.1974 and the Log2FC ([5]; degron residues 146/147/149/150/152/153/154/155/167: FYEIGASFL) was 4.1371. The Log2FC ([5]; degron residues 146/147/149/150/152/153/154/155/167: FYEVGAEFL) was 4.1417 and the Log2FC ([5]; degron residues 146/147/149/150/152/153/154/155/167: FYEVGASFL) was 4.2356.
